Laboratory results from patent publication US9062087B2, “Phenyl C-glucoside derivatives, preparation methods and uses thereof” (Tianjin Institute of Pharmaceutical Research, priority 2010, dated 2015).

Test system: healthy ICR mice
Test: glucose tolerance test in fasted ICR mice (in vivo hypoglycemic model), serum glucose by glucose oxidase method
Conditions: ICR mice fasted 16 h, dosage 10 mg/kg in 1% sodium carboxymethylcellulose, 2 g/kg glucose i.p. 2 h after test compound (Dapagliflozin: 1.5 h); for blood glucose at 0.5 h: serum 0.5 h after glucose; for blood glucose at 1 h: serum 1 h after glucose; for blood glucose at 2 h: serum 2 h after glucose; for blood glucose at 3 h: serum 3 h after glucose; for blood glucose at 4 h: serum 4 h after glucose
Description: A suspension of the test compounds with […] was prepared by dissolving the sample in 1% sodium carboxymethylcellulose solution. The administration dosage is 0.2 ml/20 g body weight, which equals to a dosage of 10 mg/kg.
Female and male of healthy ICR mice are half to half, and the weight is 20-24 g, in accordance with standard level one. Animals were fasted for 16 hours. 2 g/kg glucose in saline was intraperitoneally injected 2 hours after the test compounds (for Dapagliflozin, glucose was injected 1.5 hours after medicine), and blood samples were collected from mice tall vein using capillary at fixed times of 0.5 h, 1 h, 2 h, 3 h and 4 h after challenging with glucose. The sera were separated using centrifugation. The glucose oxidase method was used to measure glucose content of serum at different time points.

Row | SMILES | blood glucose at 0.5 h [mg/dL] | blood glucose at 1 h [mg/dL] | blood glucose at 2 h [mg/dL] | blood glucose at 3 h [mg/dL] | blood glucose at 4 h [mg/dL]
1 | CCOc1ccc(C(OC)c2cc([C@@H]3O[C@H](CO)[C@@H](O)[C@H](O)[C@H]3O)ccc2Cl)cc1 (stereo partly drawn) [Example 53, 1-{4-chloro-3-[1-(4-ethyoxyphenyl)(methoxyl)methyl]phenyl}-1-deoxy-β-D-glucopyranose] | 199.0 ± 21.3 | 171.4 ± 36.1 | 110.2 ± 20.8 | 93.0 ± 17.7 | 69.6 ± 17.3
2 | CCOc1ccc(Cc2cc([C@@H]3O[C@H](CO)[C@@H](O)[C@H](O)[C@H]3O)ccc2Cl)cc1 [Dapagliflozin, reference compound] | 277.1 ± 42.4 | 172.1 ± 34.1 | 92.1 ± 21.1 | 81.3 ± 20.1 | 60.0 ± 11.0
3 | CCOc1ccc(C(C)(F)c2cc([C@@H]3O[C@H](CO)[C@@H](O)[C@H](O)[C@H]3O)ccc2Cl)cc1 (stereo partly drawn) [Example 52, 1-{4-chloro-3-[1-(4-ethyoxyphenyl)-1-fluoroethyl]phenyl}-1-deoxy-β-D-glucopyranose] | 209.3 ± 30.4 | 175.1 ± 20.5 | 158.6 ± 31.1 | 101.2 ± 12.4 | 80.0 ± 13.2
4 | CCOc1ccc(C(C)c2cc([C@@H]3O[C@H](CO)[C@@H](O)[C@H](O)[C@H]3O)ccc2Cl)cc1 (stereo partly drawn) [Example 36, 1-{4-chloro-3-[1-(4-ethyoxyphenyl)ethyl]phenyl}-1-deoxy-β-D-glucopyranose] | 189.1 ± 21.2 | 120.1 ± 10.2 | 113.0 ± 11.0 | 74.6 ± 21.0 | 69.1 ± 13.2
5 | CCOc1ccc(C(F)c2cc([C@@H]3O[C@H](CO)[C@@H](O)[C@H](O)[C@H]3O)ccc2Cl)cc1 (stereo partly drawn) [Example 1, 1-{4-chloro-3-[(4-ethyoxyphenyl)fluoromethyl]phenyl}-1-deoxy-β-D-glucopyranose] | 194.1 ± 41.3 | 161.1 ± 35.4 | 97.3 ± 31.2 | 69.1 ± 22.1 | 67.2 ± 17.1
6 | CCOc1ccc(C(C)(C)c2cc([C@@H]3O[C@H](CO)[C@@H](O)[C@H](O)[C@H]3O)ccc2Cl)cc1 [Example 16, 1-{4-chloro-3-[(dimethyl)(4-ethyoxyphenyl)methyl]phenyl}-1-deoxy-β-D-glucopyranose] | 157.1 ± 21.3 | 137.0 ± 27.7 | 102.4 ± 17.5 | 88.1 ± 32.2 | 70.3 ± 14.2
7 | CCOc1ccc(C(C)(OC)c2cc([C@@H]3O[C@H](CO)[C@@H](O)[C@H](O)[C@H]3O)ccc2Cl)cc1 (stereo partly drawn) [Example 51, 1-{4-chloro-3-[1-(4-ethyoxyphenyl)-1-methoxyethyl]phenyl}-1-deoxy-β-D-glucopyranose] | 250.5 ± 33.1 | 158.2 ± 20.6 | 123.2 ± 33.1 | 101.2 ± 11.7 | 75.5 ± 21.4
